Structures can show the parent of a compound that is named as a salt. Where two headings read alike, the source gives them in different places.
Key:
[1] = biological target: recombinant human SOS1 polypeptide (amino acids 560-1049) (Homo sapiens (Human), UniProt Q07889); assay: biochemical; type: binding
pERK in MKN1 cells = assay: cells; type: cell-based
[2] = Homo sapiens, MKN-1, pERK inhibition, In-Cell Western, MKN1 or H358 cells (Table 24 does not say which), 0.5-1 hour incubation
[3] = read-out: Ki, Inhibition of Labeled Tracer Binding to SOS1
[4] = HTRF displacement, Cy5 labelled tracer, Morrison equation for competitive binding, read-out: Ki, Inhibition of Labeled Tracer Binding to SOS1
[5] = Homo sapiens, MKN-1, pERK inhibition, In-Cell Western, MKN1 or H358 cells (Table 24 does not say which), 0.5-1 hour incubation, read-out: IC50

recombinant human SOS1 polypeptide (amino acids 560-1049), sequence (Q07889 560-1049): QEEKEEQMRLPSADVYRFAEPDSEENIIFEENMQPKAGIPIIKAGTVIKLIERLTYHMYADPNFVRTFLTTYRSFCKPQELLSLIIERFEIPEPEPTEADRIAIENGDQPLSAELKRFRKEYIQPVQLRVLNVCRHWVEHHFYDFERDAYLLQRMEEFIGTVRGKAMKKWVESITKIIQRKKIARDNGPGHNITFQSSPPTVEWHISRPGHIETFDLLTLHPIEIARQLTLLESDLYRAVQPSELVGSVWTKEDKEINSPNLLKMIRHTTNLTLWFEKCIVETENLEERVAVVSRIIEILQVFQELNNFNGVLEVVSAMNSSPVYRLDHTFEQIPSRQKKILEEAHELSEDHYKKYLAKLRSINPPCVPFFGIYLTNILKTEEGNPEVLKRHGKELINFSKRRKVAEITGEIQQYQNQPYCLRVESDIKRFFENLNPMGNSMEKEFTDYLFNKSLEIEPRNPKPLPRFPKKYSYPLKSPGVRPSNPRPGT

## COc1c(C#N)cccc1[C@@H](C)Nc1nnc(C)c2cnc(N3CCOCC3)cc12 [Example 17-1, (R)-2-methoxy-3-(1-((4-methyl-7-morpholinopyrido[3,4-d]pyridazin-1-yl)amino)ethyl)benzonitrile]
[1]
  Ki: 4.33 nM
pERK in MKN1 cells; [2]
  IC50: 30 nM

## Cc1c(C(F)F)cccc1[C@@H](C)Nc1nnc(C)c2ccc(N3CCC(N4CCC4)CC3)cc12 [Example 10-44, (R)-7-(4-(azetidin-1-yl)piperidin-1-yl)-N-(1-(3-(difluoromethyl)-2-methylphenyl)ethyl)-4-methylphthalazin-1-amine hydrochloride salt]
[1]; [3]
  Ki: 0.51 nM
pERK in MKN1 cells; Homo sapiens, MKN-1
  IC50: 53 nM

## Cc1c(C#N)cccc1[C@@H](C)Nc1nnc(C)c2ccc(N3CCC(F)(F)CC3)cc12 [Example 10-67, (R)-3-(1-((7-(4,4-difluoropiperidin-1-yl)-4-methylphthalazin-1-yl)amino)ethyl)-2-methylbenzonitrile]
[1]; [4]
  Ki: 2.57 nM
pERK in MKN1 cells; [5]
  IC50: 44 nM

## Cc1nnc(N[C@H](C)c2cc(F)cc(C(F)(F)F)c2)c2cc(N3CCOCC3)ccc12 [Example 10-50, (R)-N-(1-(3-fluoro-5-(trifluoromethyl)phenyl)ethyl)-4-methyl-7-morpholinophthalazin-1-amine]
[1]; [4]
  Ki: 3.74 nM
pERK in MKN1 cells; [5]
  IC50: 205 nM

## Cc1c([C@@H](C)Nc2nnc(C)c3ccc(N4CCOCC4)cc23)cc(N)cc1C(F)(F)F [Example 15-2, (R)—N-(1-(5-amino-2-methyl-3-(trifluoromethyl)phenyl)ethyl)-4-methyl-7-morpholinophthalazin-1-amine]
[1]
  Ki: 0.42 nM
pERK in MKN1 cells; [2]
  IC50: 8 nM

## Cc1c([C@@H](C)Nc2nnc(C)c3ccc(N4CCNC[C@H](F)C4)cc23)cccc1C(F)(F)F [Example 10-62, 7-((S)-6-fluoro-1,4-diazepan-1-yl)-4-methyl-N-((R)-1-(2-methyl-3-(trifluoromethyl)phenyl)ethyl)phthalazin-1-amine Hydrochloride salt]
[1]; [3]
  Ki: 0.9 nM
pERK in MKN1 cells; Homo sapiens, MKN-1
  IC50: 76 nM

## Cc1c([C@@H](C)Nc2nnc(C)c3ccc(N4CC[C@@H](N(C)C)C(F)(F)C4)cc23)cccc1C(F)(F)F [Example 21-5, 7-((R)-4-(dimethylamino)-3,3-difluoropiperidin-1-yl)-4-methyl-N—((R)-1-(2-methyl-3-(trifluoromethyl)phenyl)ethyl)phthalazin-1-amine]
[1]; [4]
  Ki: 1.34 nM
pERK in MKN1 cells; [5]
  IC50: 1110 nM

## Cc1nnc(N[C@H](C)c2cccc(F)c2F)c2cc(N3CCN4CCOC[C@@H]4C3)ncc12 [Example 12-75]
[1]; [4]
  Ki: 14 nM
pERK in MKN1 cells; [5]
  IC50: 87 nM

## Cc1c([C@@H](C)Nc2nnc(C)c3ccc(N4CCNC5(CC5)C4)cc23)cccc1C(F)(F)F [Example 10-34, (R)-4-methyl-N-(1-(2-methyl-3-(trifluoromethyl)phenyl)ethyl)-7-(4,7-diazaspiro[2.5]octan-7-yl)phthalazin-1-amine]
[1]; [4]
  Ki: 0.56 nM
pERK in MKN1 cells; [5]
  IC50: 136 nM

## Cc1c([C@@H](C)Nc2nnc(C)c3ccc(N4CCC5(CCCN5)CC4)cc23)cccc1C(F)(F)F [Example 10-18, (R)-4-methyl-N-(1-(2-methyl-3-(trifluoromethyl)phenyl)ethyl)-7-(1,8-diazaspiro[4.5]decan-8-yl)phthalazin-1-amine]
[1]; [4]
  Ki: 1.41 nM
pERK in MKN1 cells; pERK inhibition, In-Cell Western, MKN1 or H358 cells (Table 24 does not say which), 0.5-1 hour incubation, read-out: IC50
  IC50: 291 nM

## Cc1c(C#N)cccc1[C@@H](C)Nc1nnc(C)c2ccc(N3CC(C)(N(C)C)C3)cc12 [Example 10-74, (R)-3-(1-((7-(3-(dimethylamino)-3-methylazetidin-1-yl)-4-methylphthalazin-1-yl)amino)ethyl)-2-methylbenzonitrile Hydrochloride salt]
[1]; [3]
  Ki: 4.26 nM
pERK in MKN1 cells; Homo sapiens, MKN-1
  IC50: 65 nM

## Cc1c(C#N)cccc1[C@@H](C)Nc1nnc(C)c2ccc(N3C[C@H]4CC[C@@H]3CN4C)cc12 [Example 10-71, 2-methyl-3-((R)-1-((4-methyl-7-((1R,4R)-5-methyl-2,5-diazabicyclo[2.2.2]octan-2-yl)phthalazin-1-yl)amino)ethyl)benzonitrile]
[1]; [4]
  Ki: 0.39 nM
pERK in MKN1 cells; [5]
  IC50: 19 nM

## CNCc1c(F)cccc1-c1ccc([C@@H](C)Nc2nnc(C)c3cnc(N4CCOCC4)cc23)s1 [Example 6-13, (R)-N-(1-(5-(3-fluoro-2-((methylamino)methyl)phenyl)thiophen-2-yl)ethyl)-4-methyl-7-morpholinopyrido[3,4-d]pyridazin-1-amine]
[1]; [4]
  Ki: 0.29 nM
pERK in MKN1 cells; [5]
  IC50: 20 nM

## Cc1c(C#N)cccc1[C@@H](C)Nc1nnc(C)c2cnc(N3CCN(c4cnn(C)c4)CC3)cc12 [Example 12-36]
[1]; [4]
  Ki: 0.99 nM
pERK in MKN1 cells; [5]
  IC50: 12 nM

## Cc1c([C@@H](C)Nc2nncc3ccc(O[C@H]4C[C@H](N(C)C)C4)cc23)cccc1C(F)(F)F [Example 2-8, 7-((trans)-3-(dimethylamino)cyclobutoxy)-N-((R)-1-(2-methyl-3-(trifluoromethyl)phenyl)ethyl)phthalazin-1-amine]
[1]; [4]
  Ki: 2.99 nM
pERK in MKN1 cells; [5]
  IC50: 148 nM

## Cc1c(C#N)cc(F)cc1[C@@H](C)Nc1nnc(C)c2cnc(N3C[C@H]4C[C@@H]3CO4)cc12 [Example 12-105]
[1]; [4]
  Ki: 10.9 nM
pERK in MKN1 cells; [5]
  IC50: 97 nM

## Cc1nnc(N[C@H](C)c2cc(O)cc(C(F)(F)F)c2)c2cc(N3CCOCC3)ccc12 [Example 21-2, (R)-3-(1-((4-methyl-7-morpholinophthalazin-1-yl)amino)ethyl)-5-(trifluoromethyl)phenol]
[1]
  Ki: 1.67 nM
pERK in MKN1 cells; [2]
  IC50: 137 nM

## Cc1c([C@@H](C)Nc2nnc(C)c3cnc(N4CCS(=O)(=O)CC4)cc23)cccc1C(F)(F)F [Example 12-13]
[1]; [4]
  Ki: 1.57 nM
pERK in MKN1 cells; [5]
  IC50: 39 nM

## Cc1c(C#N)cccc1[C@@H](C)Nc1nnc(C)c2cnc(N3CC4(COCCN4C)C3)cc12 [Example 12-72]
[1]; [4]
  Ki: 4.39 nM
pERK in MKN1 cells; [5]
  IC50: 19 nM

## Cc1c([C@@H](C)Nc2nnc(C)c3ccc(OC4CCNCC4)cc23)cccc1C(F)(F)F [Example 7-2, (R)-4-methyl-N-(1-(2-methyl-3-(trifluoromethyl)phenyl)ethyl)-7-(piperidin-4-yloxy)phthalazin-1-amine]
[1]; [4]
  Ki: 0.33 nM
pERK in MKN1 cells; [5]
  IC50: 73 nM

## Cc1c([C@@H](C)Nc2nncc3ccc(N4CCn5cc(C(F)(F)F)nc5C4C)cc23)cccc1C(F)(F)F (stereo partly drawn) [Example 1-47, 7-(8-methyl-2-(trifluoromethyl)-5,6-dihydroimidazo[1,2-a]pyrazin-7(8H)-yl)-N-((R)-1-(2-methyl-3-(trifluoromethyl)phenyl)ethyl)phthalazin-1-amine]
[1]; [4]
  Ki: 2.08 nM
pERK in MKN1 cells; [5]
  IC50: 349 nM

## Cc1nnc(N[C@H](C)c2cccc3ccccc23)c2cc(N3CCNCC3)ccc12 [Example 10-43, (R)-4-methyl-N-(1-(naphthalen-1-yl)ethyl)-7-(piperazin-1-yl)phthalazin-1-amine formate salt]
[1]; [3]
  Ki: 1.13 nM
pERK in MKN1 cells; Homo sapiens, MKN-1
  IC50: 138 nM

## Cc1c([C@@H](C)Nc2nnc(C)c3ccc(N4CCN(C)CC4)cc23)cccc1C(F)(F)F [Example 6-1, (R)-4-methyl-N-(1-(2-methyl-3-(trifluoromethyl)phenyl)ethyl)-7-(4-methylpiperazin-1-yl)phthalazin-1-amine]
[1]; [4]
  Ki: 0.11 nM
pERK in MKN1 cells; [5]
  IC50: 79 nM

## Cc1c(C#N)cccc1[C@@H](C)Nc1nnc(C)c2cc(C(F)(F)F)c(N3CC(C)(N(C)C)C3)cc12 [Example 19-1, (R)-3-(1-((7-(3-(dimethylamino)-3-methylazetidin-1-yl)-4-methyl-6-(trifluoromethyl)phthalazin-1-yl)amino)ethyl)-2-methylbenzonitrile]
[1]; [4]
  Ki: 6.16 nM
pERK in MKN1 cells; [5]
  IC50: 156 nM

## Cc1c(C#N)cccc1[C@@H](C)Nc1nnc(C)c2cnc(N3CC4(CCN(C)C4=O)C3)cc12 [Example 12-35]
[1]; [4]
  Ki: 3.78 nM
pERK in MKN1 cells; [5]
  IC50: 35 nM

## Cc1c(C#N)cccc1[C@@H](C)Nc1nnc(C)c2c(F)cc(N3CC(C)(O)C3)cc12 [Example 21-10, (R)-3-(1-((5-fluoro-7-(3-hydroxy-3-methylazetidin-1-yl)-4-methylphthalazin-1-yl)amino)ethyl)-2-methylbenzonitrile]
[1]; [4]
  Ki: 5.73 nM
pERK in MKN1 cells; [5]
  IC50: 58 nM

## Cc1c([C@@H](C)Nc2nncc3ccc(N4CCC5CCN(C)C5C4)cc23)cccc1C(F)(F)F (stereo partly drawn) [Example 1-33, N-((R)-1-(2-methyl-3-(trifluoromethyl)phenyl)ethyl)-7-(1-methyloctahydro-6H-pyrrolo[2,3-c]pyridin-6-yl)phthalazin-1-amine]
[1]; [4]
  Ki: 0.7 nM
pERK in MKN1 cells; [5]
  IC50: 109 nM

## Cc1c([C@@H](C)Nc2nnc(C)c3ccc(N4CC[C@@H](N(C)C)C4)cc23)cccc1C(F)(F)F [Example 10-26, 7-((R)-3-(dimethylamino)pyrrolidin-1-yl)-4-methyl-N-((R)-1-(2-methyl-3-(trifluoromethyl)phenyl)ethyl)phthalazin-1-amine hydrochloride salt]
[1]; [3]
  Ki: 0.47 nM
pERK in MKN1 cells; Homo sapiens, MKN-1
  IC50: 164 nM

## Cc1c([C@@H](C)Nc2nnc(C)c3cnc(N4CCC(N(C)C)CC4)cc23)cccc1C(F)(F)F [Example 12-15]
[1]; [4]
  Ki: 0.25 nM
pERK in MKN1 cells; [5]
  IC50: 17 nM

## Cc1c([C@@H](C)Nc2nnc(C)c3cnc(N4CCN(c5cnn(C)c5)CC4)cc23)cccc1C(F)(F)F [Example 12-1, (R)-4-methyl-7-(4-(1-methyl-1H-pyrazol-4-yl)piperazin-1-yl)-N-(1-(2-methyl-3-(trifluoromethyl)phenyl)ethyl)pyrido[3,4-d]pyridazin-1-amine]
[1]; [4]
  Ki: 0.2 nM
pERK in MKN1 cells; [5]
  IC50: 5 nM

## Cc1nnc(N[C@H](C)c2cc(O)cc(C(F)(F)F)c2)c2cc(N3CCOCC3)ncc12 [Example 21-1, (R)-3-(1-((4-methyl-7-morpholinopyrido[3,4-d]pyridazin-1-yl)amino)ethyl)-5-(trifluoromethyl)phenol]
[1]; [4]
  Ki: 2.93 nM
pERK in MKN1 cells; [5]
  IC50: 77 nM

## Cc1c(C#N)cccc1[C@@H](C)Nc1nnc(C)c2cnc(N3CCN(C)CC3)cc12 [Example 12-44]
[1]; [4]
  Ki: 1.16 nM
pERK in MKN1 cells; [5]
  IC50: 38 nM

## Cc1c([C@@H](C)Nc2nnc(C)c3cnc(N4C[C@H]5CC[C@@H]4CN5C)cc23)cccc1C(F)(F)F [Example 12-26]
[1]; [4]
  Ki: 0.45 nM
pERK in MKN1 cells; [5]
  IC50: 27 nM

From patent publication US11702418B2, “SOS1 inhibitors” (priority 2019, dated 2023)
